# Numbers after ± are expanded uncertainties.
# Conditions: 101 kPa, Liquid
SMILES,mass density (278.1 K) [kg/m3],viscosity (278.1 K) [mPa·s],mass density (283.1 K) [kg/m3],viscosity (283.1 K) [mPa·s],viscosity (288.15 K) [mPa·s],viscosity (293.15 K) [mPa·s],viscosity (298.15 K) [mPa·s],viscosity (303.15 K) [mPa·s],mass density (308.15 K) [kg/m3],viscosity (308.15 K) [mPa·s],viscosity (313.15 K) [mPa·s],viscosity (318.15 K) [mPa·s],viscosity (323.15 K) [mPa·s],also measured
CCO [ethanol],802.6 ± 3.4,1.629 ± 0.077,798.4 ± 3.1,1.468 ± 0.07,1.341 ± 0.065,1.207 ± 0.059,1.105 ± 0.054,1.01 ± 0.05,777.1 ± 3.2,0.92 ± 0.046,0.84 ± 0.043,0.772 ± 0.04,0.713 ± 0.037,mass density (268.1 K): 811.1 ± 3.8 kg/m3; viscosity (268.1 K): 1.975 ± 0.093 mPa·s; mass density (273.1 K): 806.8 ± 3.6 kg/m3; viscosity (273.1 K): 1.775 ± 0.084 mPa·s; mass density (288.15 K): 794.2 ± 2.9 kg/m3; mass density (293.15 K): 789.9 ± 2.7 kg/m3; mass density (298.15 K): 785.7 ± 2.9 kg/m3; mass density (303.15 K): 781.4 ± 3.1 kg/m3; mass density (313.15 K): 772.8 ± 3.4 kg/m3; mass density (318.15 K): 767.9 ± 3.6 kg/m3; mass density (323.15 K): 763.4 ± 3.7 kg/m3
O [water],999.9 ± 4.4,1.519 ± 0.072,999.7 ± 4.2,1.308 ± 0.063,1.14 ± 0.056,1.005 ± 0.05,0.894 ± 0.045,0.799 ± 0.041,994.1 ± 4.3,0.723 ± 0.038,0.655 ± 0.035,0.599 ± 0.032,0.548 ± 0.03,
